Earlier results on five molecules are cited in US11825820B2, “Poly-glutamine androgen receptor knock-in mouse models, reagents and methods” (priority 2017, dated 2023).

One data set concerns NASH. The note with it: 30 mg/day.
The test system of data set [1] is patients with nonalcoholic steatohepatitis. As to conditions: 24 weeks.
Data set [2] concerns patients with NASH/NAFLD scores of 3 to 8.
For data set [3] the following is noted: 100 mg, 250 mg vs Pioglitazone 45 mg; 28 days.

Like-named read-outs stand apart in the source and are kept apart here.

For the molecule `CCc1ccc(CCOc2ccc(CC3SC(=O)NC3=O)cc2)nc1` (stereo not drawn) [Pioglitazone], the side effects result in the data set with NASH is “weight gain, edema, bone fractures and increased risk of bladder cancer”.

On to `Cc1cc(F)c(C(=O)Nc2cccc(-c3nncn3C(C)C)n2)cc1-n1cnc(C2CC2)c1` [selonsertib], for which the “proportion of patients with a one or more stage reduction in fibrosis” value in data set [1] (6-mg selonsertib group, 8 of 27, 95% CI 14-50) is on record as 30%; in data set [1] (18-mg selonsertib group, 13 of 30, 95% CI 26-63), 43%.

Take `CSc1ccc(C(=O)/C=C/c2cc(C)c(OC(C)(C)C(=O)O)c(C)c2)cc1` [Elafibranor]: the “histological parameters NASH (steatosis, inflammation, fibrosis)” value in the data set on animal models of NASH is given as “Beneficial effects on histological parameters NASH”. In data set [2] (Phase IIb claims), the anti-inflammatory effects entry is “Anti-inflammatory effects”; the “insulin sensitivity and glucose homeostasis” value is “Improved insulin sensitivity and glucose homeostasis”; the “markers of hepatic dysfunction, including liver enzymes ALT, AST, GGT, ALP” value is reported as “Improvement in markers of hepatic dysfunction”; the “plasma lipids (triglyceride, LDL-C, HDL-C)” value is “reduction in triglyceride and LDL-C and increased HDL-C levels”. Also, the “RR, Elafibranor vs placebo” value in data set [2] (Phase IIb, after withdrawal of NAS <4 patients) was 1.9. Moreover, the “positive result, Elafibranor vs placebo” value in data set [2] (Phase IIb, after withdrawal of NAS <4 patients, placebo 12.7%, p=0.046) is listed as 22.4%. In addition, the safety profile entry in data set [2] (clinical trials, toxicology studies up to two-year carcinogenicity) is reported as “good safety profile with no unwanted side effects”. Besides, the “statistical significance of results across the entire study population” value in data set [2] (entire study population incl. NAS <4 patients) was “prevented Elafibranor from having statistically significant results”.

With `COc1cccc(C(=O)COc2ccc(CC3SC(=O)[N-]C3=O)cc2)c1.[K+]` (stereo not drawn) [MSCD-0602K], in data set [3], the “adiponectin levels vs Pioglitazone” value is listed as “equivalent to Pioglitazone” and the “overall glucose control vs Pioglitazone” value is listed as “equivalent to Pioglitazone”.

B1: simtuzumab (antibody, chains of the INN, looked up, V domains shown)
VH: QVQLVQSGAEVKKPGASVKVSCKASGYAFTYYLIEWVRQAPGQGLEWIGVINPGSGGTNYNEKFKGRATITADKSTSTAYMELSSLRSEDTAVYFCARNWMNFDYWGQGTTVTVSS
VL: DIVMTQTPLSLSVTPGQPASISCRSSKSLLHSNGNTYLYWFLQKPGQSPQFLIYRMSNLASGVPDRFSGSGSGTDFTLKISRVEAEDVGVYYCMQHLEYPYTFGGGTKVEIK
notes: comparator group (simtuzumab-alone) in the selonsertib Phase 2 study
Regarding B1, in data set [1] (simtuzumab-alone group, 2 of 10, 95% CI 3-56), the “proportion of patients with a one or more stage reduction in fibrosis” value is given as 20%.
